From patent US10206400B2, “Insecticidal compounds based on isoxazoline derivatives” (Syngenta Crop Protection LLC, priority 2009, dated 2019)

What was measured:
Type in all cases: in vivo
Spodoptera littoralis = Spodoptera littoralis (Egyptian cotton leafworm) leaf disc spray test; settings: foliar, 72 h, 200 ppm spray on cotton leaf discs, L1 larvae, mortality, feeding behavior, growth regulation 3 days after treatment
Description: Cotton leaf discs were placed on agar in a 24-well microtiter plate and sprayed with test solutions at an application rate of 200 ppm. After drying, the leaf discs were infested with 5 L1 larvae. The samples were checked for mortality, feeding behavior, and growth regulation 3 days after treatment (DAT).

Heliothis virescens = Heliothis virescens (tobacco budworm) egg/artificial diet test; settings: 96 h, 200 ppm (concentration in well 18 ppm), eggs 0-24 h old on artificial diet, 4 days, egg mortality, larval mortality, growth regulation
Procedure: Eggs (0-24 h old) were placed in 24-well microtiter plate on artificial diet and treated with test solutions at an application rate of 200 ppm (concentration in well 18 ppm) by pipetting. After an incubation period of 4 days, samples were checked for egg mortality, larval mortality, and growth regulation.

Plutella xylostella = Plutella xylostella (diamond back moth) artificial diet test; settings: 144 h, 200 ppm (concentration in well 18 ppm), L2 larvae, 6 days, larval mortality, growth regulation
Procedure: (§1) 24-well microtiter plate (MTP) with artificial diet was treated with test solutions at an application rate of 200 ppm (concentration in well 18 ppm) by pipetting. After drying, the MTP's were infested with L2 larvae (7-12 per well). After an incubation period of 6 days, samples were checked for larval mortality and growth regulation.

Diabrotica balteata = Diabrotica balteata (corn root worm) artificial diet test; settings: 120 h, 200 ppm (concentration in well 18 ppm), L2 larvae, 5 days, larval mortality, growth regulation
Procedure: as §1, with “A 24-well” for “24-well”, “(6-10” for “(7-12”, “5” for “6”

Myzus persicae = Myzus persicae (green peach aphid), systemic test; settings: 144 h, roots of infested pea seedlings in test solution, 6 days, mortality, special effects on the plant
Description: Myzus persicae (Green peach aphid), systemic test: Roots of pea seedlings, infested with an aphid population of mixed ages, are placed directly in the test solutions at an application rate of 12.5 ppm. 6 days after introduction, samples are checked for mortality and special effects on the plant. The following compounds gave at least 80% control of Myzus persicae: A3, B2, B3, B5, B6, B7, B8, B11, B12, C1, C2, C3,C4, C5, C6, C7, D1, E1, E2, G1, G3, G5, G6, H1, H5, H6, H9, H10, H11, H12, H13, H14, H18, H19, H20, H24, H25, and H26.

Thrips tabaci = Thrips tabaci (onion thrips) leaf disc spray test; settings: foliar, 168 h, 200 ppm spray on sunflower leaf discs, mixed ages, 7 days, mortality
Procedure: [The procedure below names another target; the source lists this target under the same test.] Sunflower leaf discs were placed on agar in a 24-well microtiter plate and sprayed with test solutions at an application rate of 200 ppm. After drying, the leaf discs were infested with an […] population of mixed ages. After an incubation period of 7 days, samples were checked for mortality.

Tetranychus urticae = Tetranychus urticae (two-spotted spider mite) leaf disc spray test; settings: foliar, 192 h, 200 ppm spray on bean leaf discs, mixed ages, 8 days, egg, larval and adult mortality
Description: Bean leaf discs on agar in 24-well microtiter plates were sprayed with test solutions at an application rate of 200 ppm. After drying, the leaf discs are infested with mite populations of mixed ages. 8 days later, discs are checked for egg mortality, larval mortality, and adult mortality.

Cc1cc(C2=NOC(c3cc(Cl)cc(Cl)c3)(C(F)(F)F)C2)ncc1C(=O)N[C@@H]1CON(CC(F)(F)F)C1=O (stereo partly drawn) [Compound C6, 6-[5-(3,5-Dichloro-phenyl)-5-trifluoromethyl-4,5-dihydro-isoxazol-3-yl]-4-methyl-N— [(R)-3-oxo-2-(2,2,2-trifluoro-ethyl)-isoxazolidin-4-yl]-nicotinamide]
≥ 80%: pest or weed control at 200 ppm (Spodoptera littoralis) | pest or weed control at 200 ppm (Heliothis virescens) | pest or weed control at 200 ppm (Plutella xylostella) | pest or weed control at 200 ppm (Diabrotica balteata) | pest or weed control at 12.5 ppm (Myzus persicae) | pest or weed control at 200 ppm (Thrips tabaci) | pest or weed control at 200 ppm (Tetranychus urticae)

CCCCN1OC[C@@H](NC(=O)c2ccc(C3=NOC(c4cc(Cl)cc(Cl)c4)(C(F)(F)F)C3)cc2C)C1=O (stereo partly drawn) [Compound B8, 4-[5-(3,5-Dichloro-phenyl)-5-trifluoromethyl-4,5-dihydro-isoxazol-3-yl]-2-methyl-N-((R)-2-butyl-3-oxo-isoxazolidin-4-yl)-benzamide]
≥ 80%: pest or weed control at 200 ppm (Spodoptera littoralis) | pest or weed control at 200 ppm (Heliothis virescens) | pest or weed control at 200 ppm (Plutella xylostella) | pest or weed control at 200 ppm (Diabrotica balteata) | pest or weed control at 12.5 ppm (Myzus persicae) | pest or weed control at 200 ppm (Thrips tabaci) | pest or weed control at 200 ppm (Tetranychus urticae)

Cc1cc(C2=NOC(c3cc(Cl)cc(Cl)c3)(C(F)(F)F)C2)ccc1C(=O)NC1CSSC1 (stereo not shown) [Compound A1, 4-[5-(3,5-Dichloro-phenyl)-5-trifluoromethyl-4,5-dihydro-isoxazol-3-yl]-N-[1,2]dithiolan-4-yl-2-methyl-benzamide]
≥ 80%: pest or weed control at 200 ppm (Spodoptera littoralis) | pest or weed control at 200 ppm (Heliothis virescens) | pest or weed control at 200 ppm (Plutella xylostella) | pest or weed control at 200 ppm (Diabrotica balteata) | pest or weed control at 200 ppm (Thrips tabaci)

Cc1cc(C2=NOC(c3cc(Cl)cc(Cl)c3)(C(F)(F)F)C2)ccc1C(=O)NCC1CCN(Cc2ccccc2)O1 (stereo not shown) [Compound F1, N-(2-Benzyl-isoxazolidin-5-ylmethyl)-4-[5-(3,5-dichloro-phenyl)-5-trifluoromethyl-4,5-dihydro-isoxazol-3-yl]-2-methyl-benzamide]
≥ 80%: pest or weed control at 200 ppm (Spodoptera littoralis) | pest or weed control at 200 ppm (Heliothis virescens) | pest or weed control at 200 ppm (Plutella xylostella) | pest or weed control at 200 ppm (Diabrotica balteata) | pest or weed control at 200 ppm (Thrips tabaci) | pest or weed control at 200 ppm (Tetranychus urticae)

Cc1cc(C2=NOC(c3cc(Cl)cc(Cl)c3)(C(F)(F)F)C2)ccc1C(=O)N[C@@H]1CON(C2CSC2)C1=O (stereo partly drawn) [Compound B10, 4-[5-(3,5-Dichloro-phenyl)-5-trifluoromethyl-4,5-dihydro-isoxazol-3-yl]-2-methyl-N-((R)-2-(thietan-3-yl)-3-oxo-isoxazolidin-4-yl)-benzamide]
≥ 80%: pest or weed control at 200 ppm (Spodoptera littoralis) | pest or weed control at 200 ppm (Heliothis virescens) | pest or weed control at 200 ppm (Plutella xylostella) | pest or weed control at 200 ppm (Diabrotica balteata) | pest or weed control at 200 ppm (Thrips tabaci) | pest or weed control at 200 ppm (Tetranychus urticae)

Cc1cc(C2=NOC(c3cc(Cl)cc(Cl)c3)(C(F)(F)F)C2)ccc1C(=O)N[C@@H]1CON(Cc2ccccc2)C1=O (stereo partly drawn) [Compound B4, 4-[5-(3,5-Dichloro-phenyl)-5-trifluoromethyl-4,5-dihydro-isoxazol-3-yl]-2-methyl-N-((R)-2-benzyl-3-oxo-isoxazolidin-4-yl)-benzamide]
≥ 80%: pest or weed control at 200 ppm (Spodoptera littoralis) | pest or weed control at 200 ppm (Heliothis virescens) | pest or weed control at 200 ppm (Plutella xylostella) | pest or weed control at 200 ppm (Diabrotica balteata) | pest or weed control at 200 ppm (Thrips tabaci) | pest or weed control at 200 ppm (Tetranychus urticae)

Cc1cc(C2=NOC(c3cc(Cl)cc(Cl)c3)(C(F)(F)F)C2)ccc1C(=O)N[C@@H]1CON(C2CCC2)C1=O (stereo partly drawn) [Compound B11, 4-[5-(3,5-Dichloro-phenyl)-5-trifluoromethyl-4,5-dihydro-isoxazol-3-yl]-2-methyl-N-((R)-2-(cyclobutyl)-3-oxo-isoxazolidin-4-yl)-benzamide]
≥ 80%: pest or weed control at 200 ppm (Spodoptera littoralis) | pest or weed control at 200 ppm (Plutella xylostella) | pest or weed control at 200 ppm (Diabrotica balteata) | pest or weed control at 12.5 ppm (Myzus persicae) | pest or weed control at 200 ppm (Thrips tabaci) | pest or weed control at 200 ppm (Tetranychus urticae)

CCN1OC(CNC(=O)c2ccc(C3=NOC(c4cc(Cl)cc(Cl)c4)(C(F)(F)F)C3)cc2C)CC1=O (stereo not shown) [Compound F3, 4-[5-(3,5-Dichloro-phenyl)-5-trifluoromethyl-4,5-dihydro-isoxazol-3-yl]-2-methyl-N-[3-oxo-2-ethyl-isoxazolidin-5-ylmethyl]-benzamide]
≥ 80%: pest or weed control at 200 ppm (Spodoptera littoralis) | pest or weed control at 200 ppm (Heliothis virescens) | pest or weed control at 200 ppm (Plutella xylostella) | pest or weed control at 200 ppm (Diabrotica balteata) | pest or weed control at 200 ppm (Thrips tabaci) | pest or weed control at 200 ppm (Tetranychus urticae)

Cc1cc(C2=NOC(c3cc(Cl)cc(Cl)c3)(C(F)(F)F)C2)ccc1C(=O)NCC1CO[S+]([O-])O1 (stereo not shown) [Compound F5, 4-[5-(3,5-dichlorophenyl)-5-(trifluoromethyl)-4H-isoxazol-3-yl]-2-methyl-N-[(2-oxido-1,3,2-dioxathiolan-2-ium-4-yl)methyl]benzamide]
≥ 80%: pest or weed control at 200 ppm (Spodoptera littoralis) | pest or weed control at 200 ppm (Heliothis virescens) | pest or weed control at 200 ppm (Plutella xylostella) | pest or weed control at 200 ppm (Diabrotica balteata) | pest or weed control at 200 ppm (Thrips tabaci) | pest or weed control at 200 ppm (Tetranychus urticae)

Cc1cc(C2=NOC(c3cc(Cl)cc(Cl)c3)(C(F)(F)F)C2)ccc1C(=O)N[C@@H]1CONC1=O (stereo partly drawn) [Compound B1, 4-[5-(3,5-Dichloro-phenyl)-5-trifluoromethyl-4,5-dihydro-isoxazol-3-yl]-2-methyl-N-((R)-3-oxo-isoxazolidin-4-yl)-benzamide]
≥ 80%: pest or weed control at 200 ppm (Spodoptera littoralis) | pest or weed control at 200 ppm (Heliothis virescens) | pest or weed control at 200 ppm (Plutella xylostella) | pest or weed control at 200 ppm (Tetranychus urticae)

Cc1cc(C2=NOC(c3cc(Cl)cc(Cl)c3)(C(F)(F)F)C2)ccc1C(=O)N[C@@H]1CON(CCO)C1=O (stereo partly drawn) [Compound B9, 4-[5-(3,5-Dichloro-phenyl)-5-trifluoromethyl-4,5-dihydro-isoxazol-3-yl]-2-methyl-N-((R)-2-(2-hydroxy-ethyl)-3-oxo-isoxazolidin-4-yl)-benzamide]
≥ 80%: pest or weed control at 200 ppm (Spodoptera littoralis) | pest or weed control at 200 ppm (Heliothis virescens) | pest or weed control at 200 ppm (Plutella xylostella) | pest or weed control at 200 ppm (Diabrotica balteata) | pest or weed control at 200 ppm (Thrips tabaci) | pest or weed control at 200 ppm (Tetranychus urticae)

Cc1cc(C2=NOC(c3cc(Cl)cc(Cl)c3)(C(F)(F)F)C2)ccc1C(=O)NCC1CC(=O)N(CC(F)(F)F)O1 (stereo not shown) [Compound F4, 4-[5-(3,5-Dichloro-phenyl)-5-trifluoromethyl-4,5-dihydro-isoxazol-3-yl]-2-methyl-N-[3-oxo-2-(1,1,1-trifluoroethyl)-isoxazolidin-5-ylmethyl]-benzamide]
≥ 80%: pest or weed control at 200 ppm (Spodoptera littoralis) | pest or weed control at 200 ppm (Heliothis virescens) | pest or weed control at 200 ppm (Plutella xylostella) | pest or weed control at 200 ppm (Diabrotica balteata) | pest or weed control at 200 ppm (Thrips tabaci) | pest or weed control at 200 ppm (Tetranychus urticae)

COc1ccc(N2CCC(CNC(=O)c3ccc(C4=NOC(c5cc(Cl)cc(Cl)c5)(C(F)(F)F)C4)cc3C)S2(=O)=O)cc1 (stereo not shown) [Compound F6, 4-[5-(3,5-Dichloro-phenyl)-5-trifluoromethyl-4,5-dihydro-isoxazol-3-yl]-N-[2-(4-methoxy-phenyl)-1,1-dioxo-1 lambda*6*-isothiazolidin-5-ylmethyl]-2-methyl-benzamide]
≥ 80%: pest or weed control at 200 ppm (Spodoptera littoralis) | pest or weed control at 200 ppm (Heliothis virescens) | pest or weed control at 200 ppm (Plutella xylostella) | pest or weed control at 200 ppm (Diabrotica balteata) | pest or weed control at 200 ppm (Tetranychus urticae)

Cc1cc(C2=NOC(c3cc(Cl)cc(Cl)c3)(C(F)(F)F)C2)ccc1C(=O)NCC1CCN(C)O1 (stereo not shown) [Compound F2, N-(2-methyl-isoxazolidin-5-ylmethyl)-4-[5-(3,5-dichloro-phenyl)-5-trifluoromethyl-4,5-dihydro-isoxazol-3-yl]-2-methyl-benzamide]
≥ 80%: pest or weed control at 200 ppm (Spodoptera littoralis) | pest or weed control at 200 ppm (Heliothis virescens) | pest or weed control at 200 ppm (Plutella xylostella) | pest or weed control at 200 ppm (Diabrotica balteata) | pest or weed control at 200 ppm (Thrips tabaci) | pest or weed control at 200 ppm (Tetranychus urticae)
